System: lymphocytic leukemia P-388
Test: Activity in mice against lymphocytic leukemia P-388
Type: in vivo
Conditions: Mus musculus, P388, ip; mice, I.P., 20 mg/kg; read-out: T/C

N#Cc1ccc(Cn2ccc3c4c(N)nc(N)nc4ccc32)cc1 [Example 16, 7-[(4-cyanophenyl)methyl]-7H-pyrrolo[3,2-f]-quinazoline-1,3-diamine] was tested, and the response vs control in vivo at 20 mg/kg was 138%.
